Results as given in PubChem BioAssay AID256 (DTP/NCI, 2004).
“And” between values parts separate entries of the source, which are not always exact repeats. Identical values can stand only once. Toxic doses and inconclusive results are not listed.

Test system: CD2F1 mice, L1210 leukemia ip, survival T/C
Assay: NCI In Vivo Anticancer Drug Screen. Data for tumor model L1210 Leukemia (intraperitoneal) in CD2F1 (CDF1) mice
Settings: higher = longer survival
In short: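 Transplantable tumor in mice; compound-treated vs vehicle-treated groups. Read-out = treated/control ratio of the measured endpoint.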

[1] = endpoint: mean survival time, dose: 100.0 mg/kg/injection, schedule: Q01DX009 (ip), vehicle: saline with Tween-80
[2] = endpoint: mean survival time, dose: 100.0 mg/kg/injection, schedule: Q04DX003 (ip), vehicle: saline with Tween-80
[3] = endpoint: mean survival time, dose: 200.0 mg/kg/injection, schedule: Q04DX003 (ip), vehicle: saline with Tween-80
[4] = endpoint: mean survival time, dose: 400.0 mg/kg/injection, schedule: Q04DX003 (ip), vehicle: saline with Tween-80
[5] = endpoint: mean survival time, dose: 100.0 mg/kg/injection, schedule: Q01DX001 (ip), vehicle: saline with Tween-80
[6] = endpoint: mean survival time, dose: 200.0 mg/kg/injection, schedule: Q01DX001 (ip), vehicle: saline with Tween-80
[7] = endpoint: mean survival time, dose: 200.0 mg/kg/injection, schedule: Q01DX009 (ip), vehicle: saline with Tween-80
[8] = endpoint: mean survival time, dose: 400.0 mg/kg/injection, schedule: Q01DX009 (ip), vehicle: saline with Tween-80
[9] = endpoint: mean survival time, dose: 25.0 mg/kg/injection, schedule: Q01DX009 (ip), vehicle: saline with Tween-80
[10] = endpoint: mean survival time, dose: 50.0 mg/kg/injection, schedule: Q01DX009 (ip), vehicle: saline with Tween-80

C#C[C@]1(O)CC[C@H]2[C@@H]3CCc4cc(O)ccc4[C@H]3CC[C@@]21C
T/C (endpoint: median survival time, dose: 31.2 mg/kg/injection, schedule: Q01DX009 (ip), vehicle: saline with Tween-80): 106 % of control
T/C (endpoint: median survival time, dose: 62.5 mg/kg/injection, schedule: Q01DX009 (ip), vehicle: saline with Tween-80): 97 % of control
T/C (endpoint: median survival time, dose: 125.0 mg/kg/injection, schedule: Q01DX009 (ip), vehicle: saline with Tween-80): 97 % of control
T/C (endpoint: median survival time, dose: 250.0 mg/kg/injection, schedule: Q01DX009 (ip), vehicle: saline with Tween-80): 101 % of control
T/C (endpoint: median survival time, dose: 500.0 mg/kg/injection, schedule: Q01DX009 (ip), vehicle: saline with Tween-80): 104 % of control

CC(=O)c1ccc2c3c(ccc([N+](=O)[O-])c13)CC2
T/C [1]: 94 % of control
T/C [2]: 100 % of control and 98 % of control
T/C [3]: 100 % of control and 98 % of control
T/C [4]: 98 % of control and 101 % of control

COC1=CCC2=C(C1)CC(C)O2 (configuration not stated)
T/C (endpoint: mean survival time, dose: 100.0 mg/kg/injection, schedule: Q01DX009 (ip), vehicle: acetone): 102 % of control
T/C (endpoint: mean survival time, dose: 200.0 mg/kg/injection, schedule: Q01DX009 (ip), vehicle: acetone): 107 % of control

CC(=O)OCC1OC(c2cccc3c2c2ccccc2n3S(=O)(=O)c2ccccc2)C(O)C1O (configuration not stated)
T/C (endpoint: median survival time, dose: 12.5 mg/kg/injection, schedule: Q01DX005 (ip), vehicle: saline with Tween-80): 110 % of control
T/C (endpoint: median survival time, dose: 25.0 mg/kg/injection, schedule: Q01DX005 (ip), vehicle: saline with Tween-80): 107 % of control
T/C (endpoint: median survival time, dose: 50.0 mg/kg/injection, schedule: Q01DX005 (ip), vehicle: saline with Tween-80): 96 % of control
T/C (endpoint: median survival time, dose: 100.0 mg/kg/injection, schedule: Q01DX005 (ip), vehicle: saline with Tween-80): 98 % of control
T/C (endpoint: median survival time, dose: 200.0 mg/kg/injection, schedule: Q01DX005 (ip), vehicle: saline with Tween-80): 98 % of control

COC(=O)C(Cc1c[nH]c2ccccc12)NC(=O)C(Cc1c[nH]c2ccccc12)NC(=O)OC(C)(C)C (configuration not stated)
T/C [5]: 87 % of control
T/C [1]: 98 % of control
T/C [6]: 96 % of control
T/C [7]: 96 % of control
T/C (endpoint: mean survival time, dose: 400.0 mg/kg/injection, schedule: Q01DX001 (ip), vehicle: saline with Tween-80): 100 % of control
T/C [8]: 104 % of control

O=C(c1ccccc1)c1ccc(OCCOc2ccc(C(=O)c3ccccc3)cc2)cc1
T/C [2]: 96 % of control
T/C [3]: 93 % of control
T/C [4]: 93 % of control

O=C(Nc1ccc2c(c1)Cc1cccc(NC(=O)C(Cl)Cl)c1-2)C(Cl)Cl
T/C (endpoint: mean survival time, dose: 12.5 mg/kg/injection, schedule: Q01DX009 (ip), vehicle: Klucel (hydroxypropylcellulose) (HPC)): 90 % of control
T/C (endpoint: mean survival time, dose: 25.0 mg/kg/injection, schedule: Q01DX009 (ip), vehicle: Klucel (hydroxypropylcellulose) (HPC)): 93 % of control
T/C (endpoint: mean survival time, dose: 50.0 mg/kg/injection, schedule: Q01DX009 (ip), vehicle: Klucel (hydroxypropylcellulose) (HPC)): 87 % of control

COC1=C(OC)C(=O)C(C/C=C(\C)CC/C=C(\C)CC/C=C(\C)CC/C=C(\C)CC/C=C(\C)CCC=C(C)C)=C(C)C1=O
T/C (endpoint: mean survival time, dose: 100.0 mg/kg/injection, schedule: Q01DX001 (ip), vehicle: saline): 102 % of control
T/C (endpoint: mean survival time, dose: 200.0 mg/kg/injection, schedule: Q01DX001 (ip), vehicle: saline): 103 % of control
T/C (endpoint: mean survival time, dose: 400.0 mg/kg/injection, schedule: Q01DX001 (ip), vehicle: saline): 100 % of control

OC1CC2c3ccccc3C1c1cccc[n+]12 (configuration not stated)
T/C (endpoint: mean survival time, dose: 100.0 mg/kg/injection, schedule: Q04DX003 (ip), vehicle: Klucel (hydroxypropylcellulose) (HPC)): 94 % of control

CN=NN(C)C(=O)NC
T/C (endpoint: median survival time, dose: 6.25 mg/kg/injection, schedule: Q01DX005 (ip), vehicle: saline): 110 % of control
T/C (endpoint: median survival time, dose: 12.5 mg/kg/injection, schedule: Q01DX005 (ip), vehicle: saline): 120 % of control
T/C (endpoint: median survival time, dose: 60.0 mg/kg/injection, schedule: Q01DX005 (ip), vehicle: saline): 186 % of control
T/C (endpoint: median survival time, dose: 100.0 mg/kg/injection, schedule: Q01DX005 (ip), vehicle: saline): 204 % of control

CCOC(=O)c1ccc(Cl)cc1
T/C [9]: 101 % of control
T/C [10]: 102 % of control
T/C [1]: 95 % of control

c1ccc(NSc2ccccc2)cc1
T/C [10]: 101 % of control
T/C [1]: 101 % of control
T/C [7]: 96 % of control

O=P(Oc1cccc(Br)c1)(Oc1cccc(Br)c1)c1ccccc1
T/C [2]: 98 % of control
T/C [3]: 106 % of control
T/C [4]: 108 % of control

O[O][Sn][c]1ccccc1
T/C [10]: 93 % of control
T/C [1]: 89 % of control
T/C [2]: 100 % of control
T/C [7]: 91 % of control
T/C [3]: 97 % of control

COC1OC2COc3ccccc3OC2C2N=C(N)SC12 (configuration not stated)
T/C [5]: 100 % of control
T/C [6]: 97 % of control

CC(C)CCNCCO
T/C (endpoint: mean survival time, dose: 75.0 mg/kg/injection, schedule: Q01DX001 (ip), vehicle: saline): 102 % of control
T/C (endpoint: mean survival time, dose: 150.0 mg/kg/injection, schedule: Q01DX001 (ip), vehicle: saline): 102 % of control

O=c1[nH]c(-c2ccccc2)nc(-c2ccccc2)c1CCO
T/C [2]: 95 % of control
T/C [3]: 91 % of control
T/C [4]: 106 % of control

O=C1c2ccccc2C(=O)c2c(O)c3c(c(O)c21)CCC(O)C3 (configuration not stated)
T/C (endpoint: mean survival time, dose: 12.5 mg/kg/injection, schedule: Q01DX009 (ip), vehicle: other): 102 % of control
T/C (endpoint: mean survival time, dose: 25.0 mg/kg/injection, schedule: Q01DX009 (ip), vehicle: other): 107 % of control
T/C (endpoint: mean survival time, dose: 50.0 mg/kg/injection, schedule: Q01DX009 (ip), vehicle: other): 96 % of control
T/C (endpoint: mean survival time, dose: 100.0 mg/kg/injection, schedule: Q01DX009 (ip), vehicle: other): 91 % of control
T/C (endpoint: mean survival time, dose: 200.0 mg/kg/injection, schedule: Q01DX009 (ip), vehicle: other): 93 % of control

CNC(=O)Nc1ccncc1
T/C [1]: 97 % of control
T/C [7]: 102 % of control
T/C [8]: 102 % of control

CC(CCc1ccccc1)NC(C)C(O)c1ccc(O)cc1 (configuration not stated)
T/C [9]: 102 % of control
T/C [10]: 96 % of control
T/C [1]: 102 % of control
T/C [2]: 102 % of control

CC1CCC2(CC1=O)C(C)CC(=O)C2C(C)C (configuration not stated)
T/C (endpoint: mean survival time, dose: 100.0 mg/kg/injection, schedule: Q04DX003 (ip), vehicle: saline): 95 % of control
T/C (endpoint: mean survival time, dose: 200.0 mg/kg/injection, schedule: Q04DX003 (ip), vehicle: saline): 98 % of control
T/C (endpoint: mean survival time, dose: 400.0 mg/kg/injection, schedule: Q04DX003 (ip), vehicle: saline): 98 % of control

NC(CCSCc1ccccc1)C(=O)O (configuration not stated)
T/C [1]: 91 % of control
T/C [2]: 98 % of control
T/C [7]: 91 % of control
T/C [3]: 93 % of control
T/C [8]: 91 % of control
T/C [4]: 95 % of control

O=C(CC(Cl)c1ccccc1)c1ccccc1 (configuration not stated)
T/C [1]: 91 % of control
T/C [2]: 94 % of control
T/C [7]: 96 % of control
T/C [3]: 98 % of control
T/C [8]: 91 % of control
T/C [4]: 90 % of control

CC(C)(N)C(=O)O
T/C [1]: 100 % of control
T/C [7]: 101 % of control
T/C [8]: 103 % of control

COc1cc(CNC(=O)/C(C)=C/Cl)ccc1O
T/C (endpoint: mean survival time, dose: 12.5 mg/kg/injection, schedule: Q01DX009 (ip), vehicle: saline with Tween-80): 96 % of control
T/C [9]: 95 % of control
T/C [10]: 101 % of control

N#CC(C#N)=Cc1cc2ccccc2c2ccccc12
T/C [2]: 109 % of control
T/C [3]: 97 % of control
T/C [4]: 101 % of control

CN(c1ccccc1Cl)S(C)(=O)=O
T/C [2]: 98 % of control
T/C [3]: 97 % of control
T/C [4]: 90 % of control

c1ccc2c[n+](CCc3c[nH]c4ccccc34)ccc2c1
T/C (endpoint: mean survival time, dose: 25.0 mg/kg/injection, schedule: Q04DX002 (ip), vehicle: other): 100 % of control
T/C (endpoint: mean survival time, dose: 50.0 mg/kg/injection, schedule: Q04DX002 (ip), vehicle: other): 104 % of control

COC(=O)C1OC(Sc2ncnc3nc[nH]c23)C(O)C(O)C1O (configuration not stated)
T/C (endpoint: median survival time, dose: 25.0 mg/kg/injection, schedule: Q01DX005 (ip), vehicle: water): 98 % of control
T/C (endpoint: median survival time, dose: 50.0 mg/kg/injection, schedule: Q01DX005 (ip), vehicle: water): 109 % of control
T/C (endpoint: median survival time, dose: 100.0 mg/kg/injection, schedule: Q01DX005 (ip), vehicle: water): 109 % of control
T/C (endpoint: median survival time, dose: 200.0 mg/kg/injection, schedule: Q01DX005 (ip), vehicle: water): 113 % of control and 118 % of control
T/C (endpoint: median survival time, dose: 400.0 mg/kg/injection, schedule: Q01DX005 (ip), vehicle: water): 119 % of control

Cn1cc(NC(=O)c2cc(NC(=O)c3cc(NC=O)cn3C)cn2C)cc1C(=O)NCCC(=N)N
T/C (endpoint: mean survival time, dose: 100.0 mg/kg/injection, schedule: Q04DX003 (ip), vehicle: alcohol): 108 % of control
T/C (endpoint: mean survival time, dose: 200.0 mg/kg/injection, schedule: Q04DX003 (ip), vehicle: alcohol): 102 % of control
T/C (endpoint: median survival time, dose: 12.5 mg/kg/injection, schedule: Q01DX009 (ip), vehicle: water): 104 % of control
T/C (endpoint: median survival time, dose: 25.0 mg/kg/injection, schedule: Q01DX009 (ip), vehicle: water): 100 % of control
T/C (endpoint: median survival time, dose: 50.0 mg/kg/injection, schedule: Q01DX009 (ip), vehicle: water): 103 % of control
T/C (endpoint: median survival time, dose: 100.0 mg/kg/injection, schedule: Q01DX009 (ip), vehicle: water): 108 % of control

CCCCNC(=S)Nc1ccccc1
T/C [10]: 100 % of control
T/C [1]: 105 % of control
T/C [7]: 86 % of control
